Results: the supplement of paper PMC10307832

Legend:
Test in all cases: relative viability (nuclei count vs DMSO), 5 days (fraction); higher = more cells survive
[1] = compound: Cc1ccc2nc(NCCN)c3ncc(C)n3c2c1
In short: (§1)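 Lung cancer cell lines were seeded into 1536-well plates, kept overnight at 37 °C and pinned with five library-drug doses (not always all listed) spaced by √10. After 5 days, nuclei were Hoechst-stained, imaged at 4× and counted with MetaXpress. Viability is treated-well nuclei over vehicle-well nuclei, taken as a median across plates. Plates needed control CV below 25% and at least one doubling.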

Salubrinal = compound: O=C(/C=C/c1ccccc1)NC(NC(=S)Nc1cccc2cccnc12)C(Cl)(Cl)Cl [Salubrinal]
In short: as §1

[2] = compound: Cc1ccc2nc(NCCN)c3ncc(C)n3c2c1 + Cc1nc(NC(=O)N2CCC[C@H]2C(N)=O)sc1-c1ccnc(C(C)(C)C(F)(F)F)c1 [Alpelisib] (partner 2 µM)
In short: (§2)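 After 5 days of treatment, lung cancer cells in 1536-well plates were fixed and stained in a single step (final 0.05% Triton X-100, 1% formaldehyde, 1 ug/ml Hoechst) and their nuclei counted on 4× images. Treatment had been applied by pin tool the day after seeding as one drug alone or as a fixed anchor-drug dose with five library-drug doses (not always all listed) in √10 steps. Relative viability is the nuclei count of treated wells divided by that of vehicle wells, and values are medians of duplicate plates.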

Salubrinal + Pemetrexed = compound: O=C(/C=C/c1ccccc1)NC(NC(=S)Nc1cccc2cccnc12)C(Cl)(Cl)Cl [Salubrinal] + Nc1nc2[nH]cc(CCc3ccc(C(=O)N[C@@H](CCC(=O)O)C(=O)O)cc3)c2c(=O)[nH]1 [Pemetrexed] (partner 0.2 µM)
In short: as §2

| Cell Line | relative viability ([1]; 0.04 µM) | relative viability ([1]; 0.1265 µM) | relative viability ([1]; 0.4 µM) | relative viability ([1]; 1.265 µM) | relative viability ([1]; 4 µM) | relative viability (Salubrinal; 0.08 µM) | relative viability (Salubrinal; 0.253 µM) | relative viability (Salubrinal; 0.8 µM) | relative viability (Salubrinal; 2.53 µM) | relative viability (Salubrinal; 8 µM) | relative viability ([2]; first compound 0.04 µM) | relative viability ([2]; first compound 0.1265 µM) | relative viability ([2]; first compound 0.4 µM) | relative viability ([2]; first compound 1.265 µM) | relative viability ([2]; first compound 4 µM) | relative viability (Salubrinal + Pemetrexed; first compound 0.08 µM) | relative viability (Salubrinal + Pemetrexed; first compound 0.253 µM) | relative viability (Salubrinal + Pemetrexed; first compound 0.8 µM) | relative viability (Salubrinal + Pemetrexed; first compound 2.53 µM) | relative viability (Salubrinal + Pemetrexed; first compound 8 µM) |
| --- | --- | --- | --- | --- | --- | --- | --- | --- | --- | --- | --- | --- | --- | --- | --- | --- | --- | --- | --- | --- |
| NCI-H23 | 1.06 | 1.11 | 0.853 | 1.09 | 0.907 | 1.11 | 0.858 | 1.18 | 0.995 | 1.08 | 0.893 | 0.572 | 0.797 | 0.614 | 0.696 | 0.674 | 0.633 | 0.919 | 0.653 | 0.421 |
| LOU-NH91 | 1.01 | 0.961 | 0.949 | 0.979 | 0.901 | 0.985 | 0.976 | 1.04 | 0.983 | 0.937 | 0.739 | 0.736 | 0.735 | 0.674 | 0.696 | 0.708 | 0.368 | 0.5 | 0.343 | 0.371 |
| NCI-H2085 | 1.03 | 1 | 0.982 | 1.04 | 1.01 | 1.08 | 0.976 | 1.02 | 0.947 | 1.01 | 1.01 | 0.943 | 0.961 | 1.06 | 1.11 | 1.03 | 0.88 | 0.923 | 0.941 | 0.867 |
| COR-L23 | 1.05 | 1.04 | 0.964 | 0.994 | 0.994 | 1.11 | 1.1 | 1.06 | 0.966 | 0.95 | 0.904 | 0.663 | 0.916 | 0.809 | 0.495 | 0.203 | 0.205 | 0.194 | 0.206 | 0.196 |
| BEN | 1.07 | 0.931 | 0.93 | 1.03 | 1.04 | 1.07 | 0.961 | 1.07 | 1.15 | 0.976 | 1.06 | 0.787 | 1.09 | 0.807 | 1.19 | 0.744 | 0.753 | 0.971 | 0.846 | 0.791 |
| LK-2 | 0.961 | 0.928 | 0.881 | 0.979 | 1.03 | 1.08 | 1.01 | 1.27 | 1.16 | 1 | 1.07 | 1.08 | 0.935 | 1.05 | 0.864 | 0.321 | 0.24 | 0.463 | 0.335 | 0.254 |
| NCI-H322M | 0.983 | 0.915 | 0.988 | 0.987 | 0.996 | 1.01 | 0.869 | 0.963 | 0.988 | 0.811 | 0.948 | 0.755 | 0.798 | 0.641 | 0.766 | 0.699 | 0.578 | 0.684 | 0.574 | 0.544 |
| NCI-H520 | 1.13 | 0.912 | 0.933 | 0.915 | 0.845 | 1.05 | 1.01 | 1.07 | 1.03 | 1.14 | 0.882 | 1.05 | 0.957 | 0.781 | 1.03 | 0.762 | 0.523 | 0.777 | 0.716 | 0.734 |
| NCI-H1666 | 1.08 | 0.951 | 0.962 | 0.993 | 0.993 | 0.953 | 0.99 | 0.987 | 0.888 | 1.2 | 0.836 | 0.906 | 1.13 | 0.945 | 0.613 | 0.837 | 0.804 | 0.989 | 0.864 | 0.845 |
| NCI-H1993 | 0.948 | 0.995 | 0.779 | 0.941 | 0.789 | 0.98 | 0.857 | 1.02 | 1 | 1.1 | 0.69 | 0.666 | 0.649 | 0.625 | 0.693 | 0.666 | 0.596 | 0.524 | – | 0.573 |
| NCI-H1975 | 1 | 0.951 | 0.934 | 0.85 | 0.869 | 0.93 | 0.82 | 1.01 | 1.04 | 0.935 | 0.618 | 0.551 | 0.677 | 0.643 | 0.5 | 0.321 | 0.283 | 0.337 | 0.318 | 0.28 |
| HCC-44 | 0.976 | 0.945 | 0.963 | 0.972 | 0.914 | 0.952 | 0.97 | 1.07 | 1.02 | 0.973 | 0.776 | 0.787 | 0.786 | 0.711 | 0.769 | 0.641 | 0.708 | 0.66 | 0.698 | 0.662 |
